The subject of this experiment is persistent post-viral cough. Briefly: Treatment of patients with persistent post-viral cough (case reports and the inventors' clinical experience). The experiment is classed as in vivo, human. An excerpt: As opposed to what is found in the medical literature, in the usual patient that we have observed and treated for sub-acute or chronic cough after viral respiratory infection, evidence for post-nasal drip, sinusitis, asthma, or gastroesophageal reflux has been lacking. Physical examination of the nose, throat, sinuses, and chest has been unremarkable as have chest x-ray, and simple pulmonary function tests. Antihistamines and decongestants as might be used for post-nasal drip have proven disappointing and have rarely afforded relief of the persistent cough when tried. Antibiotic treatments likewise have been effective to alleviate cough only in rare instances. […] We have been surprised by the regularity with which this treatment has proven effective.
Because the respiratory tract is a continuous conduit, topical medications can be applied to the airways surface in aerosol form. The term “aerosol” as used herein is as conventionally defined to indicate either a liquid or solid particle suspended in gas. Many chemical entities in aerosol delivery devices, both liquid and solid, have been developed and marketed for treating respiratory disorders. These include aerosol medications for application to the nose or for inhalation through the mouth. We have utilized a variety of inhaled topical corticosteroid aerosols to treat persistent post-viral cough and have found them all to be generally effective. The following are two examples of aerosols and regimens that we have found effective: • Beclovent Inhalation Aerosol (beclomethasone diprroprionate, USP): two to three sprays t.i.d. for six days. • Pulmicort Turbuhaler® 200 mcg (budesonide powder): one spray t.i.d. for six days.
The inventors have improvised treatment for protracted post-viral cough in our patients by utilizing commercially available multi-dose corticosteroid aerosol inhalers that are not indicated for that purpose. These typically provide enough chemical agent for a 29-30 day period. They are neither labeled for short-term use or for treatment of post-viral cough. While we have not encountered medicinal side effects in our treated patients, a general principal of pharmacologic treatment is to avoid overuse of medication. The desirability to minimize treatment and minimize the use of corticosteroids in particular is well recognized. On occasion, the inventors have utilized smaller size inhaler samples with fewer dosing actuations that have been available through the courtesy of pharmaceutical representatives. Although less consistently available, the devices with lesser number of actuations are considered preferable to prevent inadvertent or purposeful overuse of medication. An aerosol device containing a corticosteroid agent for treatment of about two weeks or less is preferred, and about 7 days is most preferred. It is to be noted that, lacking labeling, no inhaled corticosteroid aerosol used experimentally by the inventors comprises a “drug” to treat the persistent post-viral cough patients as herein described.
The following case reports further exemplify the present invention: • 1. A person with no previous respiratory history had initial symptoms consisting of nasal congestion, rhinorrhea, post-nasal drip, and dry cough. All symptoms but cough resolved within two week and dry cough persisted for 28 days from onset.
We have likewise found prompt response to a short course treatment of inhaled corticosteroid in these individuals, for example: […]

On to `C[C@H]1C[C@H]2[C@@H]3CCC4=CC(=O)C=C[C@]4(C)[C@@]3(Cl)[C@@H](O)C[C@]2(C)[C@@]1(O)C(=O)CO` [Beclomethasone MDI, Beclomethasone], for which the “subsequent resolution of cough” value (case 1: 2 sprays (40 mcg@) tid for six days, after one week) is recorded as “complete resolution”. Also, the recurrence of cough entry (case 1: 2 sprays (40 mcg@) tid for six days, no further medication required) was “did not reoccur”; the recurrence of cough result (case 2: 2 sprays (40 mcg@) tid for five days) is on record as “no recurrence of cough”; the recurrence of cough result (case 3: 2 sprays (40 mcg@) tid for five days) was “no recurrence”; the recurrence of cough entry (case 4: 2 sprays (40 mcg@) tid for ten days) is listed as “did not reoccur”. Moreover, the “improvement of cough at one week” value (case 1: dry cough for 28 days, 2 sprays (40 mcg@) tid for six days, slight residual in AM) is “significant improvement of cough”. The resolution of cough result by setting is: (case 2: cough for 25 days, 2 sprays (40 mcg@) tid for five days) “complete resolution of cough”; (case 3: severe dry cough for 22 days, 2 sprays (40 mcg@) tid for five days) “complete resolution of cough”; (case 4: severe dry cough for 6 weeks, 2 sprays (40 mcg@) tid for ten days) “complete resolution of cough”.

`CC[C@H]1OC(=O)[C@H](C)[C@@H](O[C@H]2C[C@@](C)(OC)[C@@H](O)[C@H](C)O2)[C@H](C)[C@@H](O[C@@H]2O[C@H](C)C[C@H](N(C)C)[C@H]2O)[C@](C)(O)C[C@@H](C)CN(C)[C@H](C)[C@@H](O)[C@]1(C)O` [azithromycin]: for the setting “case 2: five-day course, 500 mg per day, initial cold symptoms with productive cough”, the resolution of symptoms result is reported as “all symptoms resolved with the exception of a non-productive “tickling” cough”. The improvement of cough result (case 4: 500 mg per day for five days) is given as “without improvement of the cough”.

These data come from patent publication US20060024239A1, “Persistent post-viral cough drug and treatment method” (priority 2004, published 2006).
